Reference: patent US9394282B2, “Pyrazole carboxamides as Janus kinase inhibitors” (Merck Sharp & Dohme Corp., priority 2011, dated 2016)
pIC50: −log10 of the molar value.

target: JAK1 (Homo sapiens (Human), UniProt P23458); experiment: Jak biochemical HTRF assay, JAK1; conditions: recombinant purified GST-tagged catalytic domain; HTRF format; [ATP] 31.8 μM
Source text: Jak Biochemical HTRF Assay Protocol
Subsequent reagent additions employed an Agilent Bravo.

JAK1, sequence (P23458 875-1153): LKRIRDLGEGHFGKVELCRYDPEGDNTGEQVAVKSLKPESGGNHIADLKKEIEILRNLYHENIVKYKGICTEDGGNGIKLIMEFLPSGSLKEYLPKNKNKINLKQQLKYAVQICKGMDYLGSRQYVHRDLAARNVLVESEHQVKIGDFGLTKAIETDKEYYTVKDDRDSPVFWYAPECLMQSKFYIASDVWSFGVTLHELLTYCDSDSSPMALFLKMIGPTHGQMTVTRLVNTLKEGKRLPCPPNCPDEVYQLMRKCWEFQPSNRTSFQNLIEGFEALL

| pIC50 | Structure (SMILES) |
| --- | --- |
| 7.60 | N#CCC1(COC(=O)N2CC[C@@H](n3cc(C(N)=O)c(Nc4ccc(F)cc4)n3)[C@H](C#N)C2)CC1 (racemic) [Example 5-39, [1-(cyanomethyl)cyclopropyl]methyl (3R,4R and 3S,4S)-4-{4-carbamoyl-3-[(4-fluorophenyl)amino]-1H-pyrazol-1-yl}-3-cyanopiperidine-1-carboxylate] |
| 6.70 | CCOC(=O)N1CC[C@H](n2cc(C(N)=O)c(Nc3ccc(F)cc3)n2)[C@H](C#N)C1 (racemic) [Example 5-44, ethyl (3R,4S and 3S,4R)-4-{4-carbamoyl-3-[(4-fluorophenyl)amino]-1H-pyrazol-1-yl}-3-cyanopiperidine-1-carboxylate] |
| 6.59 | N#C[C@@H]1CN(C(=O)OC2CCCC2)CC[C@@H]1n1cc(C(N)=O)c(Nc2ccc(F)cc2)n1 (racemic) [Example 5-49, cyclopentyl (3R,4S and 3S,4R)-4-{4-carbamoyl-3-[(4-fluorophenyl)amino]-1H-pyrazol-1-yl}-3-cyanopiperidine-1-carboxylate] |
| 6.20 | CC(C)(C)COC(=O)N1CC[C@H](n2cc(C(N)=O)c(Nc3ccc(F)cc3)n2)[C@H](C#N)C1 (racemic) [Example 5-50, 2,2-dimethylpropyl (3R,4S and 3S,4R)-4-{4-carbamoyl-3-[(4-fluorophenyl)amino]-1H-pyrazol-1-yl}-3-cyanopiperidine-1-carboxylate] |
| 6.67 | N#C[C@@H]1CN(C(=O)OC2CCOC2)CC[C@@H]1n1cc(C(N)=O)c(Nc2ccc(F)cc2)n1 (mixture of isomers) [Example 5-51, tetrahydrofuran-3-yl (3R,4S and 3S,4R)-4-{4-carbamoyl-3-[(4-fluorophenyl)amino]-1H-pyrazol-1-yl}-3-cyanopiperidine-1-carboxylate] |
| 6.35 | CC(C)(COC(=O)N1CC[C@H](n2cc(C(N)=O)c(Nc3ccc(F)cc3)n2)[C@H](C#N)C1)n1cccn1 (racemic) [Example 5-53, 2-methyl-2-(1H-pyrazol-1-yl)propyl (3R,4S and 3S,4R)-4-{4-carbamoyl-3-[(4-fluorophenyl)amino]-1H-pyrazol-1-yl}-3-cyanopiperidine-1-carboxylate] |
| 6.49 | CCOC(=O)COC(=O)N1CC[C@H](n2cc(C(N)=O)c(Nc3ccc(F)cc3)n2)[C@H](C#N)C1 (racemic) [Example 5-59, 2-ethoxy-2-oxoethyl (3R,4S and 3S,4R)-4-{4-carbamoyl-3-[(4-fluorophenyl)amino]-1H-pyrazol-1-yl}-3-cyanopiperidine-1-carboxylate] |
| 6.45 | N#C[C@@H]1CN(C(=O)OC2CCOCC2)CC[C@@H]1n1cc(C(N)=O)c(Nc2ccc(F)cc2)n1 (racemic) [Example 5-60, tetrahydro-2H-pyran-4-yl (3R,4S and 3S,4R)-4-{4-carbamoyl-3-[(4-fluorophenyl)amino]-1H-pyrazol-1-yl}-3-cyanopiperidine-1-carboxylate] |
| 6.36 | N#CCC1(COC(=O)N2CC[C@H](n3cc(C(N)=O)c(Nc4ccc(F)cc4)n3)[C@H](C#N)C2)CC1 (racemic) [Example 5-64, [1-(cyanomethyl)cyclopropyl]methyl (3R,4S and 3S,4R)-4-{4-carbamoyl-3-[(4-fluorophenyl)amino]-1H-pyrazol-1-yl}-3-cyanopiperidine-1-carboxylate] |
| 7.08 | N#C[C@@H]1CN(C(=O)OCC(F)F)CC[C@@H]1n1cc(C(N)=O)c(Nc2ccc(F)cc2)n1 (racemic) [Example 5-65, 2,2-difluoroethyl (3R,4S and 3S,4R)-4-{4-carbamoyl-3-[(4-fluorophenyl)amino]-1H-pyrazol-1-yl}-3-cyanopiperidine-1-carboxylate] |
| 7.08 | N#C[C@@H]1CN(C(=O)OCC(F)(F)F)CC[C@@H]1n1cc(C(N)=O)c(Nc2ccc(F)cc2)n1 (racemic) [Example 5-66, 2,2,2-trifluoroethyl (3R,4S and 3S,4R)-4-{4-carbamoyl-3-[(4-fluorophenyl)amino]-1H-pyrazol-1-yl}-3-cyanopiperidine-1-carboxylate] |
| 8.40 | N#C[C@@H]1CCN(C(=O)OCC(F)(F)F)CC1n1cc(C(N)=O)c(Nc2ccc(F)cc2)n1 (mixture of isomers) [Example 5-78, 2,2,2-trifluoroethyl (3S,4R and 3R,4S)-3-{4-carbamoyl-3-[(4-fluorophenyl)amino]-1H-pyrazol-1-yl}-4-cyanopiperidine-1-carboxylate] |
| 8.22 | N#C[C@@H]1CCN(C(=O)OC2CCOCC2)CC1n1cc(C(N)=O)c(Nc2ccc(F)cc2)n1 (mixture of isomers) [Example 5-85, tetrahydro-2H-pyran-4-yl (3S,4R and 3R,4S)-3-{4-carbamoyl-3-[(4-fluorophenyl)amino]-1H-pyrazol-1-yl}-4-cyanopiperidine-1-carboxylate] |
| 8.40 | N#C[C@@H]1CCN(C(=O)OCCN2CCOCC2)CC1n1cc(C(N)=O)c(Nc2ccc(F)cc2)n1 (mixture of isomers) [Example 5-87, 2-morpholin-4-ylethyl (3S,4R and 3R,4S)-3-{4-carbamoyl-3-[(4-fluorophenyl)amino]-1H-pyrazol-1-yl}-4-cyanopiperidine-1-carboxylate] |
| 9.00 | N#C[C@@H]1CCN(C(=O)OCCC2CC2)CC1n1cc(C(N)=O)c(Nc2ccc(F)cc2)n1 (mixture of isomers) [Example 5-91, 2-cyclopropylethyl (3S,4R and 3R,4S)-3-{4-carbamoyl-3-[(4-fluorophenyl)amino]-1H-pyrazol-1-yl}-4-cyanopiperidine-1-carboxylate] |

Second part, the molecule before the results:

| Structure (SMILES) | pIC50 |
| --- | --- |
| CC(C)(C)CCOC(=O)N1CC[C@@H](C#N)C(n2cc(C(N)=O)c(Nc3ccc(F)cc3)n2)C1 (mixture of isomers) [Example 4, 3,3-Dimethylbutyl(3S,4R and 3R,4S)-3-{4-carbamoyl-3-[(4-fluorophenyl)amino]-1H-pyrazol-1-yl}-4-cyanopiperidine-1-carboxylate] | 8.10 |
| N#C[C@@H]1CN(C(=O)OCCN2CCOCC2)CC[C@H]1n1cc(C(N)=O)c(Nc2ccc(F)cc2)n1 (racemic) [Example 5-4, 2-morpholin-4-ylethyl (3R,4R and 3S,4S)-4-{4-carbamoyl-3-[(4-fluorophenyl)amino]-1H-pyrazol-1-yl}-3-cyanopiperidine-1-carboxylate] | 7.54 |
| CC(C)(C#N)COC(=O)N1CC[C@@H](n2cc(C(N)=O)c(Nc3ccc(F)cc3)n2)[C@H](C#N)C1 (racemic) [Example 5-6, 2-cyano-2-methylpropyl (3R,4R and 3S,4S)-4-{4-carbamoyl-3-[(4-fluorophenyl)amino]-1H-pyrazol-1-yl}-3-cyanopiperidine-1-carboxylate] | 7.82 |
| N#C[C@@H]1CN(C(=O)OC2CCCC2)CC[C@H]1n1cc(C(N)=O)c(Nc2ccc(F)cc2)n1 (racemic) [Example 5-11, cyclopentyl (3R,4R and 3S,4S)-4-{4-carbamoyl-3-[(4-fluorophenyl)amino]-1H-pyrazol-1-yl}-3-cyanopiperidine-1-carboxylate] | 7.54 |
| N#C[C@@H]1CN(C(=O)OC2CCOCC2)CC[C@H]1n1cc(C(N)=O)c(Nc2ccc(F)cc2)n1 (racemic) [Example 5-13, tetrahydro-2H-pyran-4-yl (3R,4R and 3S,4S)-4-{4-carbamoyl-3-[(4-fluorophenyl)amino]-1H-pyrazol-1-yl}-3-cyanopiperidine-1-carboxylate] | 7.70 |
| N#C[C@@H]1CN(C(=O)OCCN2CCCC2=O)CC[C@H]1n1cc(C(N)=O)c(Nc2ccc(F)cc2)n1 (racemic) [Example 5-15, 2-(2-oxopyrrolidin-1-yl)ethyl (3R,4R and 3S,4S)-4-{4-carbamoyl-3-[(4-fluorophenyl)amino]-1H-pyrazol-1-yl}-3-cyanopiperidine-1-carboxylate] | 7.72 |
| N#C[C@@H]1CN(C(=O)OCC(F)F)CC[C@H]1n1cc(C(N)=O)c(Nc2ccc(F)cc2)n1 (racemic) [Example 5-16, 2,2-difluoroethyl (3R,4R and 3S,4S)-4-{4-carbamoyl-3-[(4-fluorophenyl)amino]-1H-pyrazol-1-yl}-3-cyanopiperidine-1-carboxylate] | 8.10 |
| CC(C)(C)COC(=O)N1CC[C@@H](n2cc(C(N)=O)c(Nc3ccc(F)cc3)n2)[C@H](C#N)C1 (racemic) [Example 5-18, 2,2-dimethylpropyl (3R,4R and 3S,4S)-4-{4-carbamoyl-3-[(4-fluorophenyl)amino]-1H-pyrazol-1-yl}-3-cyanopiperidine-1-carboxylatc] | 6.88 |
| CCOC(=O)N1CC[C@@H](n2cc(C(N)=O)c(Nc3ccc(F)cc3)n2)[C@H](C#N)C1 (racemic) [Example 5-23, ethyl (3R,4R and 3S,4S)-4-{4-carbamoyl-3-[(4-fluorophenyl)amino]-1H-pyrazol-1-yl}-3-cyanopiperidine-1-carboxylate] | 8.00 |
| N#C[C@@H]1CN(C(=O)OC2CCOC2)CC[C@H]1n1cc(C(N)=O)c(Nc2ccc(F)cc2)n1 (mixture of isomers) [Example 5-25, tetrahydrofuran-3-yl (3R,4R and 3S,4S)-4-{4-carbamoyl-3-[(4-fluorophenyl)amino]-1H-pyrazol-1-yl}-3-cyanopiperidine-1-carboxylate] | 7.92 |
| CC(C)(COC(=O)N1CC[C@@H](n2cc(C(N)=O)c(Nc3ccc(F)cc3)n2)[C@H](C#N)C1)n1cccn1 (racemic) [Example 5-27, 2-methyl-2-(1H-pyrazol-1-yl)propyl (3R,4R and 3S,4S)-4-{4-carbamoyl-3-[(4-fluorophenyl)amino]-1H-pyrazol-1-yl}-3-cyanopiperidine-1-carboxylate] | 7.04 |
| N#C[C@@H]1CN(C(=O)OCC(F)(F)F)CC[C@H]1n1cc(C(N)=O)c(Nc2ccc(F)cc2)n1 (racemic) [Example 5-28, 2,2,2-trifluoroethyl (3R,4R and 3S,4S)-4-{4-carbamoyl-3-[(4-fluorophenyl)amino]-1H-pyrazol-1-yl}-3-cyanopiperidine-1-carboxylate] | 8.00 |
| CCOC(=O)COC(=O)N1CC[C@@H](n2cc(C(N)=O)c(Nc3ccc(F)cc3)n2)[C@H](C#N)C1 (racemic) [Example 5-38, 2-ethoxy-2-oxoethyl (3R,4R and 3S,4S)-4-{4-carbamoyl-3-[(4-fluorophenyl)amino]-1H-pyrazol-1-yl}-3-cyanopiperidine-1-carboxylate] | 8.52 |
